# Values of other authors in patent US20200061053A1, “PHARMACEUTICAL COMPOSITION AND METHOD FOR ACUTE ON CHRONIC LIVER FAILURE AND RELATED LIVER DISEASES” (priority 2018, published 2020).
# Tests used:
# liver = settings: in vivo
# [1] = laboratory test indicators, liver failure patients, TMZ 20 mg three times a day
compound,measurement,setting,value
"COc1ccc(CN2CCNCC2)c(OC)c1OC.Cl.Cl [TMZ, 1-[2,3,4-trimethoxybenzyl] piperazine dihydrochloride]",30-day immortality rate of liver failure patients,"liver failure patients; TMZ tablets 20 mg orally, three times a day, 4-week course, hospitalized liver failure patients, traditional therapeutic approach 44%",approximately 18%
same,90-day immortality rate of liver failure patients,"liver failure patients; TMZ tablets 20 mg orally, three times a day, 4-week course, hospitalized liver failure patients, traditional therapeutic approach 68%",35%
same,decrease rate of alanine aminotransferase,liver failure patients; [1],significantly raise the decrease rate
same,decrease rate of aspartate transaminase,liver failure patients; [1],significantly raise the decrease rate
same,"maintaining liver functions and decreasing transaminase levels (alanine aminotransferase, aspartate transaminase)","liver failure patients; patients suffering from liver diseases and conditions, clinical research and trial results",significant effects in maintaining liver functions and decreasing transaminase levels
same,liver toxicity,liver,minimal liver toxicity
